Data taken from patent US6962933B1, “Method for inhibiting p38 MAP kinase or TNF-α production using a 1,3-thiazole” (Takeda Pharmaceutical Company Limited, priority 1999, dated 2005).
pIC50: −log10 of the molar value.

Columns and labels:
TNF-α production = experiment: Inhibiting activity of TNF-α production in LPS-stimulated THP-1 cells (ELISA); type: cell-based; conditions: Homo sapiens, LPS 5 μg/mL, 4 hours, TNF-α in supernatant by ELISA, read-out: IC50 (concentration necessary for inhibiting TNF-α production by 50%)
Method: Measurement of inhibiting activity of TNF-α production
After THP-1 cells which had been cultured on PRMI 1640 medium (manufactured by Life Technologies, Inc.) containing 1% inactivated bovine fetal serum (manufactured by Life Technologies, Inc., U.S.A.) and 10 mM HEPES (pH 7.5) seeded on a 96-well plate to 1×10^5 cells/well, 1 μL test compound dissolved in DMSO was added. After incubation at 37° C. for 1 hour in a CO2 incubator, LPS (Wako Pure Chemicals) was added to the final concentration 5 μg/mL. After cultured at 37° C. for 4 hours in a CO2 incubator, the supernatant was obtained by centrifugation. The concentration of TNF-α in the supernatant was measured by ELISA (R&D Systems, Quantikine Kit). The concentration (IC50 value) of the test compound necessary for inhibiting TNF-α production by 50% was calculated using PRIMS 2.01 (Graphpad Software).

pIC50 (TNF-α production) | melting point [°C] | Structure (SMILES)
6.85 | 177 to 178 | CNc1nc(-c2ccc(OC)cc2)c(-c2ccncc2)s1 [Reference Example 13-16, N-methyl [4-(4-methoxyphenyl)-5-(4-pyridyl)-1,3-thiazol-2-yl]amine]
6.74 | 224 to 225 | CNc1nc(-c2ccc(Cl)cc2)c(-c2ccncc2)s1 [Reference Example 13-70, N-methyl [4-(4-chlorophenyl)-5-(4-pyridyl)-1,3-thiazol-2-yl]amine]
7.34 | 255 to 258 | Cc1cccc(-c2nc(N)sc2-c2ccncc2)c1 [Reference Example 23-60, [4-(3-methylphenyl)-5-(4-pyridyl)-1,3-thiazol-2-yl]amine]
 | 135 to 137 | Fc1ccc(-c2nc(-c3ccccc3)sc2-c2ccncc2)cc1 [Reference Example 44-1, 4-(4-fluorophenyl)-2-phenyl-5-(4-pyridyl)-1,3-thiazole]
 | 101 to 102 | CSc1ccc(-c2nc(-c3cccc(C)c3)c(-c3ccncc3)s2)cc1 [Reference Example 44-7, methyl 4-[4-(3-methylphenyl)-5-(4-pyridyl)-1,3-thiazol-2-yl]phenylsulfide]
 | 188 to 189 | Cc1cccc(-c2nc(-c3ccc([S+](C)[O-])cc3)sc2-c2ccncc2)c1 (stereo not drawn) [Reference Example 44-8, methyl 4-[4-(3-methylphenyl)-5-(4-pyridyl)-1,3-thiazol-2-yl]phenylsulfoxide]
